Measured values reported in ChEMBL document CHEMBL5032519, “Divergent synthesis and biological evaluation of 2-(trifluoromethyl)pyridines as virulence-attenuating inverse agonists targeting PqsR” (Eur J Med Chem, 2021).
pIC50: −log10 of the molar value. Converted amounts (≈) assume the structure as drawn. The source made the active and inactive calls. No cut-off for these calls is given here.

Legend:
Escherichia coli = experiment: Inverse agonist activity at PqsR in Escherichia coli […] by measuring remaining activity at 1 uM by cell-based reporter gene assay relative to control
[1] = biological target: T1, Transcriptional regulator MvfR (Pseudomonas aeruginosa PA14) (UniProt A0A072ZLE6); experiment: Inverse agonist activity at PqsR in Pseudomonas aeruginosa assessed as reduction in pyocyanin production at 0.2 uM relative to control; design: scale not given: the % may be the effect or the level left
T1 sequence (whole entry): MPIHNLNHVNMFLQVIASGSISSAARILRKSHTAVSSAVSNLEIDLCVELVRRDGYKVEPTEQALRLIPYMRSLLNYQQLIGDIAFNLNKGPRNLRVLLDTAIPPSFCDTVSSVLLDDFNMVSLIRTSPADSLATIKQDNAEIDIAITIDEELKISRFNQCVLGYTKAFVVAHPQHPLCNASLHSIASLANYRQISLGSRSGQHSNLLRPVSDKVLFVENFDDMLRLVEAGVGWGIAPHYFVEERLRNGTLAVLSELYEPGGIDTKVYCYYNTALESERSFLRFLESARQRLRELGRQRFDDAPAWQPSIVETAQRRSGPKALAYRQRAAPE

[2] = Kinetic solubility of compound; assay type: physicochemical; settings: read-out: Kinetic_solubility
[3] = Half life in human S9 fraction; assay type: ADME, subcellular
[4] = Cytotoxicity against HEK293 cells; assay type: cell-based; settings: human, read-out: LD50 (the source's name)
[5] = Inverse agonist activity at PqsR in Escherichia coli […] by cell-based reporter gene assay
[6] = biological target: T2, Transcriptional regulator MvfR (Pseudomonas aeruginosa PA14, UniProt A0A072ZLE6); experiment: Inverse agonist activity at PqsR in Pseudomonas aeruginosa assessed as reduction in pyocyanin production
T2 sequence (A0A072ZLE6 whole entry): T1 sequence (whole entry)

[7] = Cytotoxicity against human HepG2 cells; assay type: cell-based; settings: read-out: LD50 (the source's name)
Pseudomonas aeruginosa [8] = experiment: Antibiofilm activity against Pseudomonas aeruginosa assessed as reduction in CFU at 0.5 ug/ml; assay type: functional, organism-based; settings: dose 0.5 µg/ml
[9] = biological target: T1, Transcriptional regulator MvfR (Pseudomonas aeruginosa PA14); experiment: Inverse agonist activity at PqsR in Pseudomonas aeruginosa assessed as reduction in pyocyanin production at 10 uM relative to control; design: scale not given: the % may be the effect or the level left; settings: filed as inverse agonist
Pseudomonas aeruginosa [10] = experiment: Antibiofilm activity against Pseudomonas aeruginosa assessed as reduction in CFU at 50 uM in presence of TOB; assay type: functional, organism-based
Pseudomonas aeruginosa [11] = experiment: Antibiofilm activity against Pseudomonas aeruginosa assessed as reduction in CFU at 50 uM; assay type: functional, organism-based

Structure (SMILES): FC(F)(F)c1cc(NCCCc2ccccc2)ccn1
- Activity (Escherichia coli): 52%

Structure (SMILES): FC(F)(F)c1cc(NC/C=C/c2ccc(Cl)nc2)ccn1
- Activity (Escherichia coli): 81%

Structure (SMILES): FC(F)(F)c1cc(NCCCc2ccc(Oc3ccccc3)cc2)ccn1
- Activity (Escherichia coli; filed as inverse agonist): -41%
- Activity [1]: 0%

Structure (SMILES): COc1cccc(C#CCNc2ccnc(C(F)(F)F)c2)c1
- Activity (Escherichia coli): 58%

Structure (SMILES): COc1ccc(C#CCNc2ccnc(C(F)(F)F)c2)cc1
- Activity (Escherichia coli; filed as inverse agonist): 8%

Structure (SMILES): FC(F)(F)c1cc(NCC#Cc2ccc(Cl)c(Cl)c2)ccn1
- Activity (Escherichia coli; filed as inverse agonist): 35%

Structure (SMILES): Fc1ccc(CCCNc2ccnc(C(F)(F)F)c2)cc1
- solubility kinetic [2]: 93.9 µM (≈ 28 µg/mL)
- half-life [3]: 32.7 min
- CC50 [4]: 25000 nM
- pIC50 [5]: 6.60
- pIC50 [6]: 5.44

Structure (SMILES): COc1ccc(C#CCNc2ccnc(C(F)(F)F)c2)cc1C
- pIC50 [5]: 6.54
- Activity [1]: 5%

Structure (SMILES): FC(F)(F)c1cc(NCC#Cc2ccc(Cl)nc2)ccn1
- Activity (Escherichia coli; filed as inverse agonist): 33%

Structure (SMILES): Fc1cccc(C#CCNc2ccnc(C(F)(F)F)c2)c1
- pIC50 [5]: 6.65

Structure (SMILES): CCOc1ccc(C#CCNc2ccnc(C(F)(F)F)c2)cc1Cl
- pIC50 [5]: 6.82
- pIC50 [6]: 6.41

Structure (SMILES): Oc1ccc(C#CCNc2ccnc(C(F)(F)F)c2)cc1
- Activity (Escherichia coli): 82%

Structure (SMILES): COc1ccc(C#CCNc2ccnc(C(F)(F)F)c2)cc1F
- pIC50 [6]: 5.50

Structure (SMILES): COc1cccc(CCCNc2ccnc(C(F)(F)F)c2)c1
- Activity (Escherichia coli): 59%

Structure (SMILES): Fc1ccc(C#CCNc2ccnc(C(F)(F)F)c2)cc1
- CC50 [7]: > 50000 nM
- solubility kinetic [2]: > 200 µM
- half-life [3]: 61.2 min
- CC50 [4]: > 50000 nM
- pIC50 [5]: 6.85
- pIC50 [6]: 5.46

Structure (SMILES): CC(C)Oc1ccc(C#CCNc2ccnc(C(F)(F)F)c2)cc1
- pIC50 [6]: 6.19

Structure (SMILES): CC(C)Oc1ccc(C#CCNc2ccnc(C(F)(F)F)c2)cc1Cl
- pIC50 [5]: 6.89
- pIC50 [6]: 6.25

Structure (SMILES): FC(F)(F)c1cc(NC/C=C\c2ccc(Cl)nc2)ccn1
- Activity (Escherichia coli; filed as inverse agonist): 45%

Structure (SMILES): CCOc1ccc(C#CCNc2ccnc(C(F)(F)F)c2)cc1
- pIC50 [5]: 6.77
- pIC50 [6]: 6.41

Structure (SMILES): FC(F)(F)c1cc(NCC#Cc2ccc(Cl)cn2)ccn1
- Activity (Escherichia coli): 53%

Structure (SMILES): CCOc1ccc(C#CCNc2ccnc(C(F)(F)F)c2)cc1F
- solubility kinetic [2]: 60.4 µM (≈ 20.4 µg/mL)
- half-life [3]: 13 min
- CC50 [4]: 56900 nM
- pIC50 [6]: 6.60

Structure (SMILES): FC(F)(F)c1cc(NCc2cn(-c3ccc(Oc4ccccc4)cc3)nn2)ccn1
- half-life [3]: 169 min

Structure (SMILES): COc1ccc(C#CCNc2ccnc(C(F)(F)F)c2)cc1Cl
- Activity (Escherichia coli; filed as inverse agonist): 29%
- Activity [1]: 4%

Structure (SMILES): FC(F)(F)c1cc(SCC#Cc2ccc(Cl)cc2)ccn1
- CC50 [7]: > 100000 nM
- solubility kinetic [2]: 42.4 µM (≈ 13.9 µg/mL)
- half-life [3]: 43.9 min
- CC50 [4]: > 100000 nM

Structure (SMILES): FC(F)(F)c1cc(NCCCc2ccc(Cl)cc2)ccn1
- pIC50 [5]: 6.83
- pIC50 [6]: 5.98

Structure (SMILES): FC(F)(F)c1cc(NCC#Cc2ccc(Cl)cc2)ccn1
- pIC50 [5]: 6.55
- pIC50 [6]: 5.10

Structure (SMILES): Nc1cc(NCCCc2ccc(F)cc2)cc(C(F)(F)F)n1
- half-life [3]: 56 min
- pIC50 [5]: 6.85
- pIC50 [6]: 5.16

Structure (SMILES): FC(F)(F)c1cc(NCC#Cc2ccc(Br)cc2)ccn1
- Activity (Escherichia coli): 115%

Structure (SMILES): FC(F)(F)c1cc(NCC#Cc2ccc(Oc3ccccc3)cc2)ccn1
- CC50 [7]: > 25000 nM
- solubility kinetic [2]: 13.2 µM (≈ 4.86 µg/mL)
- half-life [3]: 53 min
- CC50 [4]: 10000 nM
- pIC50 [5]: 7.70
- pIC50 [6]: 6.31

Structure (SMILES): FC(F)(F)c1cc(NC/C=C/c2ccc(Oc3ccccc3)cc2)ccn1
- pIC50 [5]: 6.33
- pIC50 [6]: 5.42

Structure (SMILES): NC[C@H]1O[C@H](O[C@H]2[C@H](O)[C@@H](O[C@H]3O[C@H](CO)[C@@H](O)[C@H](N)[C@H]3O)[C@H](N)C[C@@H]2N)[C@H](N)C[C@@H]1O
- Activity (Pseudomonas aeruginosa [8]): inactive

Structure (SMILES): FC(F)(F)c1cc(NC/C=C/c2ccc(Cl)cc2)ccn1
- pIC50 [5]: 6.32
- Activity [9]: 93%

Structure (SMILES): CC(C)Oc1ccc(C#CCNc2ccnc(C(F)(F)F)c2)cc1F
- CC50 [7]: 69800 nM
- solubility kinetic [2]: 58.8 µM (≈ 20.7 µg/mL)
- half-life [3]: 25.3 min
- CC50 [4]: 61900 nM
- pIC50 [5]: 7.10
- pIC50 [6]: 6.36
- Activity (Pseudomonas aeruginosa [10]): Active
- Activity (Pseudomonas aeruginosa [11]): Active

Structure (SMILES): Fc1ccc(C#CCNc2ccnc(C(F)(F)F)c2)c(F)c1
- Activity (Escherichia coli): 70%
